Patent US20230310445A1, “LOX ENZYME INHIBITING METHODS AND COMPOSITIONS” (ANOVIA BIOSCIENCES, INC., priority 2020, published 2023)
Like-named read-outs stand apart in the source and are kept apart here.

What was measured:
[1] = biological target: T1, Recombinant human LOXL3 (lysyl oxidase like 3) (Homo sapiens, UniProt P58215); assay: LOXL3 inhibition assay (fluorometric, cadaverine/Amplex Red/HRP); type: biochemical; settings: IC50 class; recombinant human LOXL3, cadaverine substrate; read-out: Activity Range LOXL3
T1 construct: purchased R&D systems
T1 sequence (P58215 26-753): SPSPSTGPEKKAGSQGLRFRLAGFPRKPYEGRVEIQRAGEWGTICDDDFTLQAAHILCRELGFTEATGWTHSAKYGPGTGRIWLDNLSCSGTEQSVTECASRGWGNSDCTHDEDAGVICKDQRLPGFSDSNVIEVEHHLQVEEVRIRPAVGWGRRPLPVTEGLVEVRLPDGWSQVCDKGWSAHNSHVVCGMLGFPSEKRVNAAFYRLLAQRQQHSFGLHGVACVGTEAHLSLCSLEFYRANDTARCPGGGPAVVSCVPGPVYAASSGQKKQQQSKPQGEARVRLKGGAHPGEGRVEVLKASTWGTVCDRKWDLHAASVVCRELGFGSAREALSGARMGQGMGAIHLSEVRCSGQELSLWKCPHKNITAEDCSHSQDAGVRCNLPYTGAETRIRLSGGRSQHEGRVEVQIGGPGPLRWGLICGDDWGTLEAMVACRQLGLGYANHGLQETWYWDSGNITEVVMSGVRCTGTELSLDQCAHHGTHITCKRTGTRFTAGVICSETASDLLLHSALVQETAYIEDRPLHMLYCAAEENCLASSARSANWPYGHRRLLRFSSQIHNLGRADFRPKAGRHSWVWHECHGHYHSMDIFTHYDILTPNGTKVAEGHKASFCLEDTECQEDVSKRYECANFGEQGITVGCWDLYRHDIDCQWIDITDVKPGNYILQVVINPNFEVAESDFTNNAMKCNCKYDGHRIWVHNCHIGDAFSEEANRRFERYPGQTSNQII
Protocol: The ability of compounds to inhibit one or more of the lysyl oxidases LOXL2 and/or LOXL3 was determined using a fluorometric assay. This assay measures the activity of lysyl oxidases by coupling the reaction with horseradish peroxidase-catalyzed […]. The activity assay protocol uses cadaverine as substrate that releases hydrogen peroxide upon transformation by the specific LOX family enzyme present in the sample. Hydrogen peroxide is in turn detected using a red fluorescence substrate for HRP-coupled reactions (Amplex Red Enzyme Assays, Thermo Scientific Fisher). This leads to increase in fluorescence that can be easily detected at Ex/Em=540/590 nm in a fluorescence microplate reader.
Enzymes: Recombinant human LOXL2 (lysyl oxidase like 2) and recombinant human LOXL3 (lysyl oxidase like 3) were purchased from R&D systems and assays were performed in 1.2 M urea, 50 mM sodium borate buffer pH 8.0, and 10 mM CaCl.
Reaction: Final concentration in the LOXL2 and LOXL3 assays were as following and performed in a total volume of […]:
Experimental procedure: 5 μl of freshly prepared reaction buffer were delivered to reaction wells. Compounds were resuspended in 100% DMSO at 10 mM and delivered into buffer using acoustic technology (Echo550; nanoliter range). A 3× solution of LOXL2 or LOXL3 in reaction buffer was prepared (“enzyme solution”) and 5 μL of enzyme solution was added into the reaction wells. Buffer only was added to column 1 for no protein control. Reactions were incubated for 30 minutes at 37° C. A 3×mixture of cadaverine, Amplex Red, and HRP (“Substrate/Detection Mix) was prepared and subsequently 5 μL of the mixture added to each reaction well. Progress of reactions was monitored for 60 minutes at 37° C. using Clariostar plate reader (ex 530-12, ems 600-40). For all activity assays, pan-LOX inhibitor CCT365623 (Tang et al, 2017) and LOXL2/LOXL3 inhibitor PAT-1251 (PharmaKea) were included as standards.
Data analysis: Slope of the linear portion of the progress curve was calculated using Clariostar software. Typical analysis interval was between 8-30 min, but varied between experiments. The background subtracted signals (No protein wells are considered as background) were converted to % activity relative to DMSO controls. Data was analyzed using GraphPad Prism 4 with “sigmoidal dose-response (variable slope)”; 4 parameters with Hill Slope. Constraints: Bottom=Constant equal to 0. Top=Must be less than 120.

[2] = Permeability study in Caco-2 cell line; type: in vitro ADME; settings: human; for efflux ratio at 2 h, 5 μM: Caco-2, pH 7.4; for Papp A→B at 2 h, 5 μM: Caco-2, apical to basolateral; for Papp A→B at 2 h, 5 μM / Papp B→A at 2 h, 5 μM: pH 7.4; for Papp B→A at 2 h, 5 μM: Caco-2, basolateral to apical
Protocol: Caco-2 cell suspensions were dispensed into the inserts of the 96-well HTS Transwell plate and cultivated for 14-18 days. Transepithelial electrical resistance (TEER) across the monolayer was measured using Millicell Epithelial Volt-Ohm measuring system. The Caco-2 plate was then washed twice with pre-warmed HBSS (pH 7.4) and incubated at 37° C. for 30 minutes. To determine the rate of drug transport in the apical to basolateral direction. 5 μM test compound was added to the Transwell insert and the wells in the receiver plate were filled with HBSS (pH 7.4). To determine the rate of drug transport in the basolateral to apical direction, 5 μM test compound was added to the receiver plate wells and then the Transwell inserts were filled with HBSS (pH 7.4). The plates were incubated at 37° C. for 2 hours. 50 μL samples from donor sides and receiver sides were transferred to wells of a new 96-well plate followed by the addition of 4 volume of cold methanol containing internal standards (IS). Samples were centrifuged and the supernatant was used for LC-MS/MS analysis. After the incubation, residue solutions were removed from the Transwell plates, and Lucifer yellow (100 μM) solution was added to each Transwell insert, followed by filling the receiver wells with HBSS. The plates were incubated at 37° C. for 30 minutes. 80 μL samples were removed from the apical and basolateral wells and the fluorescence of Lucifer yellow was measured in a microplate reader with 485 nm excitation and 530 nm emission.

[3] = Microsome stability study; type: in vitro ADME, mouse; settings: for half-life at 2 μM / microsomal CLint at 2 μM / CLint scaled at 2 μM: CD-1, pH 7.4; for half-life at 2 μM / microsomal CLint at 2 μM: male mouse liver microsomes 0.5 mg/mL, NADPH; for CLint scaled at 2 μM: male, read-out: Scaled-up CLint; for CLint scaled at 2 μM / Predicted hepatic CL: mouse liver microsomes
Protocol: Pooled CD-1 mouse liver microsomes at 0.5 mg/mL were pre-incubated in phosphate buffer (100 mM, pH 7.4) containing 1 mM NADPH and 3 mM MgCl2 in a 96-well plate for 5 minutes at 37° C. Ultra-pure water was added instead of NADPH in the negative control group to exclude the misleading factor that resulted from instability of chemical itself. The reaction was initiated by adding test compound at the final concentration of 2 μM and incubated at 37° C. Aliquots were taken from the incubation at 0, 15, 30, 45 and 60 minutes followed by the addition of 4 volume of cold acetonitrile containing internal standards. Samples were centrifuged and supernatant was used for LC-MS/MS analysis.

[4] = Caco-2, pH 7.4, Caco-2, apical to basolateral, read-out: Recovery (%)AP-BL
[5] = Caco-2, pH 7.4, Caco-2, basolateral to apical, read-out: Recovery (%)BL-AP

In the case of NCc1ccnc(S(=O)(=O)N2C[C@@H](C(=O)N3CCS(=O)(=O)CC3)C[C@@H](c3ccccc3)C2)c1 (racemic) [Example 134, cis-(1-((4-(Aminomethyl)pyridin-2-yl)sulfonyl)-5-phenylpiperidin-3-yl)(1,1-dioxidothiomorpholino)methanone 2,2,2-trifluoroacetate], the IC50 [1] is reported as ≤ 500 nM.
Compound CN(C)C(=O)[C@H]1C[C@@H](C2CCCCC2)CN(S(=O)(=O)c2cccc(CN)c2)C1 (relative stereo) [Example 138, cis-1-((3-(Aminomethyl)phenyl)sulfonyl)-5-cyclohexyl-N,N-dimethylpiperidine-3-carboxamide 2,2,2-trifluoroacetate] has an IC50 [1] of 1000 to 30000 nM.
For CS(=O)(=O)[C@@H]1C[C@@H](S(=O)(=O)c2cccc(CN)c2)CN(c2ccccc2)C1 (racemic) [Example 79, trans-(3-((-5-(Methylsulfonyl)-1-phenylpiperidin-3-yl)sulfonyl)phenyl)methanamine], the IC50 [1] was 1000 to 30000 nM.
Work on CS(=O)(=O)[C@H]1C[C@@H](S(=O)(=O)c2cccc(CN)c2)CN(c2ccccc2F)C1 (racemic) [Example 92, cis-(3-((-1-(2-Fluorophenyl)-5-(methylsulfonyl)piperidin-3-yl)sulfonyl)phenyl)methanamine 2,2,2-trifluoroacetate] yielded an IC50 [1] of 1000 to 30000 nM.
For CS(=O)(=O)N1CCN(C(=O)[C@H]2C[C@@H](c3ccccc3F)CN(S(=O)(=O)c3ccc(CN)s3)C2)CC1.O=C(O)C(F)(F)F (racemic) [Example 91, cis-(1-((5-(Aminomethyl)thiophen-2-yl)sulfonyl)-5-(2-fluorophenyl)piperidin-3-yl)(4-(methylsulfonyl)piperazin-1-yl)methanone 2,2,2-trifluoroacetate], the efflux ratio at 2 h, 5 μM [2] was 138, the recovery at 2 h, 5 μM [2, 4] was 68.6% and the recovery at 2 h, 5 μM [2, 5] was 78.2%. For the same compound, the Papp A→B at 2 h, 5 μM [2] was 0.11 ×10⁻⁶ cm/s, the Papp B→A at 2 h, 5 μM [2] was 15.6 ×10⁻⁶ cm/s and the half-life at 2 μM [3] was 24.5 min. The microsomal CLint at 2 μM [3] was 56.5 µL/min/mg, the CLint scaled at 2 μM [3] was 247 mL/min/kg and the “Predicted hepatic CL” value [3] was 65.98 mL/min/kg.
Compound NCc1ccc(S(=O)(=O)N2C[C@H](C(=O)N3CCS(=O)(=O)CC3)C[C@@H](c3ccccc3)C2)s1.O=C(O)C(F)(F)F (racemic) [Example 75B, trans-(1-((5-(Aminomethyl)thiophen-2-yl)sulfonyl)-5-phenylpiperidin-3-yl)(1,1-dioxidothiomorpholino)methanone 2,2,2-trifluoroacetate] has an efflux ratio at 2 h, 5 μM [2] of 30.1, a recovery at 2 h, 5 μM [2, 4] of 72.1% and a recovery at 2 h, 5 μM [2, 5] of 83.5%. For the same compound, the Papp A→B at 2 h, 5 μM [2] was 0.4 ×10⁻⁶ cm/s, the Papp B→A at 2 h, 5 μM [2] was 12.1 ×10⁻⁶ cm/s and the half-life at 2 μM [3] was 37.1 min. For the same compound, the microsomal CLint at 2 μM [3] was 37.3 µL/min/mg, the CLint scaled at 2 μM [3] was 163 mL/min/kg and the “Predicted hepatic CL” value [3] was 58.02 mL/min/kg.
For NCc1ccnc(S(=O)(=O)N2C[C@H](C(=O)N3CCOCC3)C[C@H](c3ccccc3)C2)c1 [Example 133B, ((3R,5R)-1-((4-(aminomethyl)pyridin-2-yl)sulfonyl)-5-phenylpiperidin-3-yl)(morpholino)methanone 2,2,2-trifluoroacetate], the IC50 [1] was ≤ 500 nM.
NCc1ccnc(S(=O)(=O)N2C[C@@H](C(=O)N3CCOCC3)C[C@@H](c3ccccc3)C2)c1 [Example 133A, ((3S,5S)-1-((4-(aminomethyl)pyridin-2-yl)sulfonyl)-5-phenylpiperidin-3-yl)(morpholino)methanone 2,2,2-trifluoroacetate] showed an IC50 [1] of 500 to 1000 nM.
In the case of NCc1cccc(S(=O)(=O)N2C[C@H](C(=O)N3CCS(=O)(=O)CC3)C[C@@H](c3ccccc3)C2)n1 (racemic) [Example 115T, trans-(1-((6-(Aminomethyl)pyridin-2-yl)sulfonyl)-5-phenylpiperidin-3-yl)(1,1-dioxidothiomorpholino)methanone 2,2,2-trifluoroacetate], the IC50 [1] is reported as > 30000 nM.
For NCc1ccnc(S(=O)(=O)N2C[C@@H](C(=O)N3CCOCC3)C[C@@H](c3ccccc3)C2)c1 (relative stereo) [Example 133, cis-(1-((4-(Aminomethyl)pyridin-2-yl)sulfonyl)-5-phenylpiperidin-3-yl)(morpholino)methanone 2,2,2-trifluoroacetate], the IC50 [1] was ≤ 500 nM.
Compound NCc1ccc(S(=O)(=O)N2C[C@H](C(=O)N3CCOCC3)C[C@H](c3ccccc3)C2)s1 [Example 13B, ((3R,5R)-1-((5-(aminomethyl)thiophen-2-yl)sulfonyl)-5-phenylpiperidin-3-yl)(morpholino)methanone] has an efflux ratio at 2 h, 5 μM [2] of 24.5, a recovery at 2 h, 5 μM [2, 4] of 76.8% and a recovery at 2 h, 5 μM [2, 5] of 78.8%. The Papp A→B at 2 h, 5 μM [2] was 1.16 ×10⁻⁶ cm/s, the Papp B→A at 2 h, 5 μM [2] was 28.5 ×10⁻⁶ cm/s and the half-life at 2 μM [3] was 79.7 min. For the same compound, the microsomal CLint at 2 μM [3] was 17.4 µL/min/mg, the CLint scaled at 2 μM [3] was 76.1 mL/min/kg and the “Predicted hepatic CL” value [3] was 41.24 mL/min/kg.
With CS(=O)(=O)N1C[C@H](Oc2cccc(CN)c2)C[C@H](c2ccccc2F)C1 (racemic) [Example 70, cis-(3-((5-(2-Fluorophenyl)-1-(methylsulfonyl)piperidin-3-yl)oxy)phenyl)methanamine 2,2,2-trifluoroacetate] the IC50 [1] was 1000 to 30000 nM.
In the case of NCc1cccc(S(=O)(=O)N2C[C@@H](C(=O)N3CCS(=O)(=O)CC3)C[C@@H](C3CCCCC3)C2)c1 (racemic) [Example 140, cis-(1-((3-(Aminomethyl)phenyl)sulfonyl)-5-cyclohexylpiperidin-3-yl)(1,1-dioxidothiomorpholino)methanone], the IC50 [1] is reported as 1000 to 30000 nM.
With NCc1ccc(S(=O)(=O)N2C[C@@H](C(=O)N3CCOCC3)C[C@@H](C3CCCCC3)C2)s1.O=C(O)C(F)(F)F (racemic) [Example 120, cis-(1-((5-(Aminomethyl)thiophen-2-yl)sulfonyl)-5-cyclohexylpiperidin-3-yl)(morpholino)methanone 2,2,2-trifluoroacetate] the half-life at 2 μM [3] was 37 min, the microsomal CLint at 2 μM [3] was 37.4 µL/min/mg and the CLint scaled at 2 μM [3] was 164 mL/min/kg. The “Predicted hepatic CL” value [3] was 58.07 mL/min/kg.
